Patent US20240116898A1, “NOVEL GLUTAMINYL CYCLASE INHIBITORS AND THE USE THEREOF IN TREATMENT OF VARIOUS DISEASES” (LTD "VALENTA-INTELLEKT", priority 2017, published 2024)

Tests used:
[1] = test system: thermal pain irritation hot plate in Balb/c mice; settings: mouse, in vivo
Protocol: The model of thermal pain irritation “hot plate” was carried out according to the standard procedure [Barrot M. Tests and models of nociception and pain in rodents. […] After 1 hour after the administration of the preparation, the “hot plate” test was carried out. To conduct the “hot plate” test, the mice were placed on the hot plate, the temperature (+55±1° C.) of which is constant.
The time of first manifestations of the pain response in mice (paw licking, jumping) was registered and the mean latent time of the threshold of pain sensitivity (TPS, sec) in each group was calculated.

[2] = test system: formaldehyde-induced pharyngitis in rats; assay: Rat model of non-infectious pharyngitis (Evans blue exudation); type: in vivo
Protocol: The rats were anesthetized with sodium thiopentone (50 mg/kg, intraperitoneally) and a cannula with a RenaSil® silicone rubber tube (SIL 037, Braintree Scientific, Inc., Braintree, MA) was inserted into the external jugular vein using a heparinized saline solution (40 U/ml).
The Evans Blue dye (Evans Blue, EB) (30 mg/kg) was administered to all the animals intravenously through a catheter; 10 minutes after the EB dye was administered, a 30% formalin solution was applied to the surface of the pharyngeal mucosa as follows: the tongue was slightly pulled out, the pharyngeal area was opened deep in the mouth with blunt forceps and gently, using a sterile cotton pad, the formation solution (50 μl) was applied for 5 seconds each time it is applied. In the intact group thephysiologicla solution was used.
60 minutes after the application of 30% formalin solution, the animals were euthanized by the exsanguination. The head of each rat was perfused with the heparinized saline solution (40 U/ml) to remove the intravascular EB dye.
The degree of the inflammation was assessed by the exudation test of the Evans blue (EB) dye. […] The amount of dye in the fabric was calculated using the standard curve for the Evans blue dye, and was expressed in micrograms of the dye per gram of wet fabric weight (μg/g).
The formaldehyde solution with a concentration of 30% was adminstered to the control group.

[3] = test system: specific pain reaction by chemical irritation of the peritoneum in Balb/c mice; assay: Abdominal constriction test (acetic acid) in mice; type: in vivo, mouse
Protocol: The model of the specific pain reaction by the method of chemical stimulation of peritoneum (“abdominal constriction” test) was carried out according to the standard procedure. To conduct the “abdominal constriction” test, Balb/c mice were intraperitoneally administered with 1% acetic acid in a volume of 10 ml per kg of the animal body weight. […] A quantity of constrictions (convulsive twitching of the abdominal muscles accompanied with stretching hind quarters and arching) was evaluated 15 minutes after the administration of acetic acid.

[4] = test system: carrageenan-induced rat paw edema; assay: Carrageenan-induced rat paw edema; type: in vivo; settings: 8 mg/kg, 2 hours after carrageenan
Protocol: Experiments were performed on male white nonlinear rats weighing 250-270 g.

[5] = 0.3 mg/kg intragastric 1 hour before acetic acid

SMILES: O=C(NCCc1cnc[nH]1)C(=O)NCCc1cnc[nH]1 [Compound I, N,N′-bis[2-(1H-imidazol-4-yl)ethyl]oxalamide]
- Duration of the pharmacological effect [1]: at least 24 hours
- Decrease of the concentration of dye in the tissue compared to the control ([2]; 6 mg/kg): 2.8 times
- Decrease of the concentration of dye in the tissue compared to the control ([2]; 18 mg/kg): 6.4 times

SMILES: CC(C)(CC(=O)NCCc1cnc[nH]1)CC(=O)NCCc1cnc[nH]1 [Compound IX, N,N′-bis[2-(1H-imidazol-4-yl)ethyl]-3,3-dimethylpentanediamide]
- Quantity of constrictions for 15 minutes [3, 5]: 11.6 ± 3.5

SMILES: O=C(CCCCC(=O)NCCc1cnc[nH]1)NCCc1cnc[nH]1 [Compound VII, N,N′-bis[2-(1H-imidazol-4-yl)ethyl]adipamide]
- Quantity of constrictions for 15 minutes [3, 5]: 17.6 ± 2.81

SMILES: O=C(O)Cc1ccccc1Nc1c(Cl)cccc1Cl [Diclofenac, reference compound]
- Effect on pharyngitis inflammation (dye concentration) ([2]; 8 mg/kg): no effect
- The concentration of the dye in the tissue ([2]; 8 mg/kg intragastric 24 h and 1 h before formaldehyde): 0.112 ± 0.031 µg/mg
- Inhibition of edema growth [4]: 42%

SMILES: O=C(c1ccccc1)c1ccc2n1CCC2C(=O)O (stereo not drawn) [Ketorol, reference compound]
- Quantity of constrictions for 15 minutes ([3]; 15 mg/kg): 23.60 ± 1.87
